Tests used:
Type in all cases: in vivo
Ctenocephalides felis [1] = assay: Ctenocephalides felis in vitro contact test with adult cat fleas; conditions: application rate 5 μg/cm^2 (=500 g/ha), after 48 h, adult cat fleas dead or moribund, read-out: efficacy
Protocol: For the coating of the test tubes, 9 mg of active ingredient are first dissolved in 1 ml of acetone p.a. and then diluted to the desired concentration with acetone p.a. 250 μl of the solution are distributed homogeneously on the inner walls and the base of a 25 ml glass tube by turning and rocking on an orbital shaker (rocking rotation at 30 rpm for 2 h). With 900 ppm of active ingredient solution and internal surface area 44.7 cm^2, given homogeneous distribution, an area-based dose of 5 μg/cm^2 is achieved. After the solvent has evaporated off, the tubes are populated with 5-10 adult cat fleas (Ctenocephalides felis), sealed with a perforated plastic lid and incubated in a horizontal position at room temperature and ambient humidity. After 48 h, efficacy is determined. To this end, the tubes are stood upright and the fleas are knocked to the base of the tube. Fleas which remain motionless at the base or move in an uncoordinated manner are considered to be dead or moribund. […] 100% efficacy means that all the fleas were dead or moribund. 0% efficacy means that no fleas were harmed.

Ctenocephalides felis [2] = assay: Ctenocephalides felis oral test; conditions: 48 h, application rate 100 ppm in citrated cattle blood, after 2 days, read-out: efficacy (kill)
Protocol: Solvent: dimethyl sulfoxide To produce a suitable active ingredient formulation, 10 mg of active ingredient are mixed with 0.5 ml of dimethyl sulfoxide. Dilution with citrated cattle blood gives the desired concentration. About 20 unfed adult cat fleas (Ctenocephalides felis) are placed into a chamber which is closed at the top and bottom with gauze. A metal cylinder whose bottom end is closed with parafilm is placed onto the chamber. The cylinder contains the blood/active ingredient formulation, which can be imbibed by the fleas through the parafilm membrane. After 2 days, the kill in % is determined. 100% means that all of the fleas have been killed; 0% means that none of the fleas have been killed.

Lucilia cuprina = Lucilia cuprina test; conditions: 48 h, application rate 100 ppm, L1 larvae, after 2 days, read-out: efficacy (kill)
Protocol: Solvent: dimethyl sulfoxide To produce a suitable active ingredient formulation, 10 mg of active ingredient are mixed with 0.5 ml of dimethyl sulfoxide, and the concentrate is diluted with water to the desired concentration. About 20 L1 larvae of the Australian sheep blowfly (Lucilia cuprina) are transferred into a test vessel containing minced horsemeat and the active ingredient formulation of the desired concentration. After 2 days, the kill in % is determined. 100% means that all the larvae have been killed; 0% means that no larvae have been killed.

Meloidogyne incognita = Meloidogyne incognita test; conditions: 336 h, application rate 20 ppm, formation of galls on lettuce after 14 days, read-out: nematicidal efficacy
Protocol: Solvent: 125.0 parts by weight of acetone To produce a suitable active ingredient formulation, 1 part by weight of active ingredient is mixed with the stated amount of solvent and the concentrate is diluted to the desired concentration with water. Vessels are filled with sand, active ingredient solution, an egg/larvae suspension of the southern root-knot nematode (Meloidogyne incognita) and lettuce seeds. The lettuce seeds germinate and the plants develop. The galls develop on the roots. After 14 days, the nematicidal efficacy in % is determined by the formation of galls. 100% means that no galls were found; 0% means that the number of galls on the treated plants corresponds to the untreated control.

Myzus persicae [3] = assay: Myzus persicae oral test; conditions: 120 h, after 5 days, read-out: efficacy; for pest or weed control at 0.8 ppm: application rate 0.8 ppm; for pest or weed control at 4 ppm: application rate 4 ppm
Protocol: Solvent: 100 parts by weight of acetone To produce a suitable active ingredient formulation, 1 part by weight of active ingredient is dissolved with the stated parts by weight of solvent and made up to the desired concentration with water. 50 μl of the active ingredient preparation are transferred into microtitre plates and made up to a final volume of 200 μl with 150 μl of IPL41 insect medium (33%+15% sugar). Subsequently, the plates are sealed with parafilm, which a mixed population of green peach aphids (Myzus persicae) within a second microtitre plate is able to puncture and imbibe the solution. After 5 days, the efficacy in % is determined. 100% means that all the aphids have been killed; 0% means that no aphids have been killed.

Myzus persicae [4] = assay: Myzus persicae spray test; conditions: foliar, 120 h, Chinese cabbage leaf discs, after 5 days, read-out: efficacy; for pest or weed control at 20 g/ha: application rate 20 g/ha; for pest or weed control at 100 g/ha: application rate 100 g/ha
Protocol: (§1) Solvent: 78 parts by weight of acetone • • 1.5 parts by weight of dimethylformamide Emulsifier: alkylaryl polyglycol ether To produce a suitable active ingredient formulation, 1 part by weight of active ingredient is dissolved with the specified parts by weight of solvent and made up to the desired concentration with water containing an emulsifier concentration of 1000 ppm. To produce further test concentrations, the formulation is diluted with emulsifier-containing water. Discs of Chinese cabbage leaves (Brassica pekinensis) infested by all stages of the green peach aphid (Myzus persicae) are sprayed with an active ingredient formulation of the desired concentration. After 5 days, the efficacy in % is determined. 100% means that all the aphids have been killed; 0% means that no aphids have been killed.

Phaedon cochleariae [5] = assay: Phaedon cochleariae spray test; conditions: 168 h, application rate 100 g/ha, larvae, after 7 days, read-out: efficacy
Protocol: as §1, with “Solvent: 78.0” for “Solvent: 78”, “pekinensis)” for “pekinensis) infested by all stages of the green peach aphid (Myzus persicae)”, “desired concentration and, after drying, populated with larvae of the mustard beetle (Phaedon cochleariae).” for “desired concentration.”, “After 7” for “After 5”, “the beetle larvae” for “the aphids”, “no beetle larvae” for “no aphids”

Phaedon cochleariae [6] = assay: Phaedon cochleariae spray test (PHAECO), contrastive examples; conditions: 168 h, 7 dat, read-out: % efficacy
Protocol: Solvent: 78.0 parts by weight of acetone • • 1.5 parts by weight of dimethylformamide Emulsifier: alkylaryl polyglycol ether To produce an appropriate active ingredient formulation, 1 part by weight of active ingredient is dissolved with the stated parts by weight of solvent and made up with water containing an emulsifier concentration of 1000 ppm until the desired concentration is attained. For production of further test concentrations, the mixture is diluted with emulsifier-containing water. Discs of chinese cabbage leaves (Brassica pekinensis) are sprayed with an active ingredient formulation of the desired concentration and, after drying, populated with larvae of the mustard beetle (Phaedon cochleariae). After the desired time, the efficacy in % is determined. 100% means that all beetle larvae have been killed; 0% means that no beetle larvae have been killed.

Myzus persicae [7] = assay: Myzus persicae spray test (MYZUPE), contrastive examples; conditions: 120 h, 5 dat, read-out: % efficacy
Protocol: as §1, with “78.0” for “78”, “chinese” for “Chinese”, “the desired time,” for “5 days,”, “all” for “all the”

Myzus persicae [8] = assay: Myzus persicae spray test (MYZUPE S), bell pepper plants; conditions: 144 h, 6 dat, read-out: % efficacy
Protocol: Solvent: 14 parts by weight of dimethylformamide Emulsifier: alkylaryl polyglycol ether To produce an appropriate active ingredient formulation, 1 part by weight of active ingredient is dissolved with the stated parts by weight of solvent and made up with water containing an emulsifier concentration of 1000 ppm until the desired concentration is attained. For production of further test concentrations, the mixture is diluted with emulsifier-containing water. If addition of ammonium salts or/and penetrants is required, these are each added to the preparation solution in a concentration of 1000 ppm. Bell pepper plants (Capsicum annuum) severely infested by the green peach aphid (Myzus persicae) are treated by spraying with the active ingredient formulation in the desired concentration. After the desired time, the kill in % is determined. 100% means that all animals have been killed; 0% means that no animals have been killed.

Nilaparvata lugens = Nilaparvata lugens spray test (NILALU); conditions: 96 h, 4 dat, read-out: % efficacy
Protocol: Solvent: 52.5 parts by weight of acetone • 7 parts by weight of dimethylformamide
Emulsifier: alkylaryl polyglycol ether
To produce an appropriate active ingredient formulation, 1 part by weight of active ingredient is dissolved with the stated parts by weight of solvent and made up with water containing an emulsifier concentration of 1000 ppm until the desired concentration is attained. For production of further test concentrations, the mixture is diluted with emulsifier-containing water. If addition of ammonium salts or/and penetrants is required, these are each added to the preparation solution in a concentration of 1000 ppm.
Rice plants (Oryza sativa) are sprayed with an active ingredient formulation of the desired concentration and then populated with larvae of the rice cicada (Nilaparvata lugens).
After the desired time, the efficacy in % is determined. 100% means that all rice cicadas have been killed; 0% means that no rice cicadas have been killed.

Boophilus microplus = Boophilus microplus injection test; conditions: application rate 20 μg/animal, laying of fertile eggs assessed after 7 days
Protocol: Solvent: dimethyl sulfoxide To produce a suitable active ingredient formulation, 10 mg of active ingredient are mixed with 0.5 ml of solvent and the concentrate is diluted to the desired concentration with solvent. 1 μl of the active ingredient solution is injected into the abdomen of 5 engorged adult female cattle ticks (Boophilus microplus). The animals are transferred into dishes and kept in a climate-controlled room. Efficacy is assessed after 7 days by laying of fertile eggs. Eggs which are not visibly fertile are stored in a climate-controlled cabinet until the larvae hatch after about 42 days. An efficacy of 100% means that none of the ticks has laid any fertile eggs; 0% means that all the eggs are fertile.

What does the source list for `CCS(=O)(=O)c1ccc(NC(=O)NC)nc1-c1nc2cc(C(F)(F)F)nnc2n1C` [Example I-1, 1-{5-(ethylsulfonyl)-6-[7-methyl-3-(trifluoromethyl)-7H-imidazo[4,5-c]pyridazin-6-yl]pyridin-2-yl}-3-methylurea]?
pest or weed control at 5 µg/cm2, 500 g/ha (Ctenocephalides felis [1]): 100%; pest or weed control at 100 ppm (Ctenocephalides felis [2]): 100%; pest or weed control at 100 ppm (Lucilia cuprina): 100%; pest or weed control at 20 ppm (Meloidogyne incognita): 100%; pest or weed control at 0.8 ppm (Myzus persicae [3]): 90%; pest or weed control at 4 ppm (Myzus persicae [3]): 100%; pest or weed control at 20 g/ha (Myzus persicae [4]): 90%; pest or weed control at 100 g/ha (Myzus persicae [4]): 100%; pest or weed control at 100 g/ha (Phaedon cochleariae [5]): 100%; Emax at 4 g/ha (Phaedon cochleariae [6]; 4 g/ha): 67%; Emax at 20 g/ha (Phaedon cochleariae [6]): 83%; Emax at 100 g/ha (Phaedon cochleariae [6]): 100%; Emax at 4 g/ha (Myzus persicae [7]): 90%; Emax at 0.8 ppm (Myzus persicae [8]): 70%

For `CCS(=O)(=O)c1ccc(NC(=O)N(C)C)nc1-c1nc2cc(C(F)(F)F)nnc2n1C` [Example I-2], which pest or weed control at 5 µg/cm2, 500 g/ha (Ctenocephalides felis [1]) is on record?
The pest or weed control at 5 µg/cm2, 500 g/ha was 100%.

And the pest or weed control at 100 ppm (Ctenocephalides felis [2])?
The pest or weed control at 100 ppm was 100%.

And the pest or weed control at 100 ppm (Lucilia cuprina)?
Its pest or weed control at 100 ppm is 100%.

What about the pest or weed control at 20 ppm (Meloidogyne incognita) of the same compound?
The pest or weed control at 20 ppm was 100%.

What about the pest or weed control at 0.8 ppm (Myzus persicae [3]) of the same compound?
The pest or weed control at 0.8 ppm was 100%.

What about the pest or weed control at 4 ppm (Myzus persicae [3]) of the same compound?
Its pest or weed control at 4 ppm is 100%.

And the pest or weed control at 20 g/ha (Myzus persicae [4])?
Its pest or weed control at 20 g/ha is 100%.

What about the pest or weed control at 100 g/ha (Myzus persicae [4]) of the same compound?
Its pest or weed control at 100 g/ha is 90%.

What about the pest or weed control at 100 g/ha (Phaedon cochleariae [5]) of the same compound?
Its pest or weed control at 100 g/ha is 100%.

What about the Emax at 20 g/ha (Phaedon cochleariae [6]) of the same compound?
The Emax at 20 g/ha was 83%.

And the Emax at 100 g/ha (Phaedon cochleariae [6])?
Its Emax at 100 g/ha is 100%.

And the Emax at 0.8 ppm (Myzus persicae [8])?
Its Emax at 0.8 ppm is 90%.

How did the pest or weed control at 5 µg/cm2, 500 g/ha (Ctenocephalides felis [1]) turn out when `CCS(=O)(=O)c1ccc(N(C)C(=O)NC)nc1-c1nc2cc(C(F)(F)F)nnc2n1C` [Example I-3] was run?
Its pest or weed control at 5 µg/cm2, 500 g/ha is 100%.

What about the pest or weed control at 100 ppm (Ctenocephalides felis [2]) of the same compound?
Its pest or weed control at 100 ppm is 100%.

And the pest or weed control at 100 ppm (Lucilia cuprina)?
The pest or weed control at 100 ppm was 90%.

And the pest or weed control at 20 ppm (Meloidogyne incognita)?
Its pest or weed control at 20 ppm is 100%.

What about the pest or weed control at 0.8 ppm (Myzus persicae [3]) of the same compound?
The pest or weed control at 0.8 ppm was 100%.

And the pest or weed control at 4 ppm (Myzus persicae [3])?
The pest or weed control at 4 ppm was 100%.

What about the pest or weed control at 20 g/ha (Myzus persicae [4]) of the same compound?
Its pest or weed control at 20 g/ha is 100%.

And the pest or weed control at 100 g/ha (Phaedon cochleariae [5])?
Its pest or weed control at 100 g/ha is 100%.

And the Emax at 4 g/ha (Nilaparvata lugens)?
The Emax at 4 g/ha was 70%.

Which efficacy (Boophilus microplus) does the source give for `CNC(=O)N(C)c1ccc(S(C)(=O)=O)c(-c2nc3cc(C(F)(F)F)nnc3n2C)n1` [Example I-6] here?
Its efficacy is 80%.

And the pest or weed control at 100 ppm (Ctenocephalides felis [2])?
The pest or weed control at 100 ppm was 100%.

And the pest or weed control at 0.8 ppm (Myzus persicae [3])?
The pest or weed control at 0.8 ppm was 100%.

And the pest or weed control at 4 ppm (Myzus persicae [3])?
The pest or weed control at 4 ppm was 100%.

What about the pest or weed control at 100 g/ha (Myzus persicae [4]) of the same compound?
Its pest or weed control at 100 g/ha is 90%.

And the Emax at 0.8 ppm (Myzus persicae [8])?
Its Emax at 0.8 ppm is 85%.

— patent US11505553B2, “2-(Het)aryl-substituted fused heterocycle derivatives as pesticides” (Bayer Aktiengesellschaft, priority 2017, dated 2022)
